The record followed here is patent publication US11203586B2, “Iridinesulfonamide compound and use method thereof” (Chia Tai Tianqing Pharmaceutical Group Co., Ltd., priority 2016, dated 2021).

The target in series [1] is T1, IDH1 (R132H) (Homo sapiens (Human), UniProt O75874, R132H). The series can be described thus: Binding mode determination, free compound by LC-MS/MS. Conditions: incubated with IDH1 (R132H), FIG. 1. As to the method: The compounds were incubated with IDH1 (R132H), and then divided into N parts. The reaction was terminated by adding acetonitrile at different time points, and the organic phase was separated by centrifugation. The resulting samples were stored at −80° C. until analysis, and the concentration of the compounds in free from were analyzed by LC-MS/MS, mobile phase A: water (0.1% of formic acid), B: acetonitrile (0.1% of formic acid), strong needle wash solution: acetonitrile:water=9:1, weak needle wash solution: acetonitrile:water=1:9.

For series [2], the target named is T1, IDH1 (R132H). The series can be described thus: Enzyme assay, NADPH decrease detected with Diaphorase/Resazurin. The series is classed as biochemical. Conditions: 40 nM enzyme, 20 μM NADPH, incubated at 23° C. for 16 hours before α-KG; 12 concentrations. The source says: (§1) Resazurin is a traditional redox dye, and after a redox reaction, it can be reduced from a blue resazurin without fluorescence to a pink fluorescent substance, resorufin, which can be measured and quantified with relative fluorescence unit (RFU) of fluorophotometer (Ex=530-570 nm, Em=590-620 nm). At present, resazurin is widely used for determining the viability of bacteria, cells, etc. and the enzyme activity detection of oxidoreductase. We detected the decrease of cofactor NADPH to determine the inhibitory activity of a compound against IDHm and detected the generation of cofactor NADPH to determine the inhibitory activity of a compound against IDH WT.
(§2) The compound was pre-incubated with IDHm and NADPH, and then the reaction was initiated by adding α-KG and performed for certain time under a linear condition.
(§3) Then, Diaphorase (lipoamide dehydrogenase) and the corresponding substrate Resazurin were added thereto for detection. Lipoamide dehydrogenase terminated the IDH2m reaction by decreasing the available cofactor NADPH, which oxidized NADPH to NADP, and reduced resazurin to high fluorescent resorufin. The amount of the remaining cofactor NADPH after a specific reaction time was quantified via an easily detectable fluorophore.
(§4) The specific operation was as follows: 2.5 μl of the compound diluted in a 3-fold gradient was added to a 384-well plate, followed by adding 5 μL of the reaction buffer (20 mM Tris-HCl, pH 7.5; 150 mM NaCl; 10 mM MgCl2; 0.4 mg/mL BSA (Bovine Serum Albumin) and 2 mM DTT (dithiothreitol)) containing 40 nM IDH1 (R132H/R132C) and 20 μM NADPH. Then, the above test mixture was incubated at 23° C. for 16 hours, and then 2.5 μL of the reaction buffer containing 4 mM α-KG was added to initiate the reaction. After they were incubated for 60 minutes at room temperature, 5 μL of the termination mixture (0.4 U/ml Diaphorase and 20 μM Resazurin) formulated with the reaction buffer was added to convert resazurin to resorufin, so as to measure the amount of the remaining NADPH. After incubating at 23° C. for 10 minutes, fluorescence values were determined through Flexstation 3 at Ex535/Em595. The enzyme activity of each compound was respectively determined at 12 concentrations, and the data were calculated using the software GraFit6.0 (Erithacus Software) to obtain the IC50 value of each compound.

Another series can be described thus: Pharmacokinetic test. The format is in vivo. Conditions: male SD rats, oral 5 mg/kg. The procedure: Male SD rats were from Beijing Vital River Laboratory Animal Technology Co., Ltd., and divided into groups (3 rats per group). The rats were intragastically administered with the test sample suspension (5 mg/kg) via a single peroral administration, respectively. The animals were fasted overnight before this study. The fasting time period was from 10 hours before administration to 4 hours after administration. Blood samples were taken at 0.25, 0.5, 1, 2, 4, 6, 8 and 24 hours after administration. After the rats were anesthetized with isoflurane using an anesthesia machine for small animal, and then 0.3 mL whole blood samples were taken from the fundus venous plexus. The blood samples were placed in heparin anticoagulant tubes, and centrifuged for 5 min at 4° C. and 4000 rpm. The plasma was transferred to centrifuge tubes, and stored at −80° C. until analysis. The samples in plasma were extracted through protein precipitation. The liquid extract was analyzed by LC-MS/MS, mobile phase A: water (0.1% of formic acid), B: acetonitrile (0.1% of formic acid), strong needle wash solution: acetonitrile:water=9:1, weak needle wash solution: acetonitrile:water=1:9.

A further series addresses IDH1 (R132C) (Homo sapiens (Human), UniProt O75874, R132C). The series can be described thus: Enzyme assay, NADPH decrease detected with Diaphorase/Resazurin. The series is classed as biochemical. Conditions: 40 nM enzyme, 20 μM NADPH, incubated at 23° C. for 16 hours before α-KG; 12 concentrations.
Description: as §1, §2, §3, §4

The mark [3] stands for this setting: rat, 0.5% MC, 0.2% Tween80, plasma.

SMILES strings stand for the structures.

T1 sequence (O75874 whole entry R132H): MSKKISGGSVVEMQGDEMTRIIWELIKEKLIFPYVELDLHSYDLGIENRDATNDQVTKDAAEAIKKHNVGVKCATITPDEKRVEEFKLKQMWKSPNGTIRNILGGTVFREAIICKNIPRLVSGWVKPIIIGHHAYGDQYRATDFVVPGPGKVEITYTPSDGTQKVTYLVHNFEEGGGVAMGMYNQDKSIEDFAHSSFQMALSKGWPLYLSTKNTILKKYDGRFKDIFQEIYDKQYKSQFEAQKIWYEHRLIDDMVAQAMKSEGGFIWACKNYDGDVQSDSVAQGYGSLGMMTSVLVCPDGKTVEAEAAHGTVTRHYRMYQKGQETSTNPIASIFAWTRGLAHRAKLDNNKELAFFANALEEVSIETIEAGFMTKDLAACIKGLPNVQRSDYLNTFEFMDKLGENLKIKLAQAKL
Sequence of IDH1 (R132C) (O75874 whole entry R132C): as the sequence (O75874 whole entry R132H) above, with H132C counted along it

For the compound `O=C(NC1CC(F)(F)C1)C(c1ccccc1Cl)N(C(=O)CNS(=O)(=O)N1CC1)c1cccc(F)c1` (stereo not shown) [Example 10, 2-(aziridine-1-sulfonylamino)-N-(1-(2-chlorophenyl)-2-((3,3-difluorocyclobutyl)amino)-2-oxoethyl)-N-(3-fluorophenyl)acetamide], the “binding of the compound to the enzyme over time” value at IDH1 (R132H) [1] is reported as “increased over time”. Besides, the IC50 against IDH1 (R132H) [2] was < 0.02 µM. For the same compound, the “drug concentration in vivo over time” value in “Pharmacokinetic test” (PK curve FIG. 2) is listed as “decreased drug concentration in vivo over time”. Further, in the series “Pharmacokinetic test” (setting [3]), the highest level (Cmax) was 0.508 µg/mL, the time to peak (Tmax) is 15 min and the half-life was 90 min. Besides, in “Pharmacokinetic test” (rat, 0.5% MC, 0.2% Tween80, plasma, read-out: AUCINF—obs), the AUC(0-inf) came out at 0.794 µg·h/mL.
On to `O=C(NC1CC(F)(F)C1)[C@H](c1ccccc1Cl)N(C(=O)CNS(=O)(=O)N1CC1)c1cccc(F)c1` [Example 25, (S)-2-(aziridine-1-sulfonylamino)-N-(1-(2-chlorophenyl)-2-((3,3-difluorocyclobutyl)amino)-2-oxoethyl)-N-(3-fluorophenyl)acetamide], for which the IC50 on IDH1 (R132H) [2] and against IDH1 (R132C) was < 0.02 µM in each case.
For the compound `NS(=O)(=O)c1cccc(N(C(=O)CNS(=O)(=O)N2CC2)C(C(=O)NC2CC(F)(F)C2)c2ccccc2Cl)c1` (stereo not shown) [Example 28, 2-(aziridine-1-sulfonylamino)-N-(1-(2-chlorophenyl)-2-((3,3-difluorocyclobutyl)amino)-2-oxoethyl)-N-(3-aminosulfonylphenyl)acetamide], the IC50 against IDH1 (R132H) [2] is < 0.1 µM.
For `O=C(NC1CC(F)(F)C1)C(c1ccccc1Cl)N(C(=O)CNS(=O)(=O)N1CC1)c1ccc(F)c(F)c1` (stereo not shown) [Example 29, 2-(aziridine-1-sulfonylamino)-N-(1-(2-chlorophenyl)-2-((3,3-difluorocyclobutyl)amino)-2-oxoethyl)-N-(3,4-difluorophenyl)acetamide], the IC50 against IDH1 (R132H) [2] is < 0.02 µM.
Turning to `O=C(NC1CCC(F)(F)CC1)C(c1ccccc1Cl)N(C(=O)CNS(=O)(=O)N1CC1)c1cccc(F)c1` (stereo not shown) [Example 30, 2-(aziridine-1-sulfonylamino)-N-(1-(2-chlorophenyl)-2-(4,4-difluorocyclohexylamino)-2-oxoethyl)-N-(3-fluorophenyl)acetamide], the IC50 against IDH1 (R132H) [2] was < 0.02 µM.
Consider `C[C@@H]1CN1S(=O)(=O)NCC(=O)N(c1cccc(F)c1)C(C(=O)NC1CCCCC1)c1ccccc1Cl` (stereo partly drawn) [Example 31, 2-(2-chlorophenyl)-N-cyclohexyl-2-(N-(3-fluorophenyl)-2-(((R)-2-methylaziridine)-1-sulfonylamino)acetamido)acetamide], for which the IC50 against IDH1 (R132H) [2] is < 0.02 µM.
`C[C@H]1CN1S(=O)(=O)NCC(=O)N(c1cccc(F)c1)C(C(=O)NC1CCCCC1)c1ccccc1Cl` (stereo partly drawn) [Example 32, 2-(2-chlorophenyl)-N-cyclohexyl-2-(N-(3-fluorophenyl)-2-(((S)-2-methylaziridine)-1-sulfonylamino)acetamido)acetamide]: on IDH1 (R132H) [2], the IC50 was < 0.02 µM.
Turning to `C[C@H]1CN1S(=O)(=O)NCC(=O)N(c1cc(F)cc(C#N)c1)C(C(=O)NC1CC(F)(F)C1)c1ccccc1Cl` (stereo partly drawn) [Example 33, 2-(2-chlorophenyl)-2-(N-(3-cyano-5-fluorophenyl)-2-(((S)-2-methylaziridine)-1-sulfonylamino)acetamido)-N-(3,3-difluorocyclobutyl)acetamide], the IC50 against IDH1 (R132H) [2] is < 0.1 µM.
On the same count and under the same terms, with `O=C(NC1CC(F)(F)C1)[C@H](c1ccccc1Cl)N(C(=O)[C@H]1CCN(S(=O)(=O)N2CC2)C1)c1cccc(F)c1` [Example 34, (S)-1-(aziridin-1-ylsulfonyl)-N—((S)-1-(2-chlorophenyl)-2-((3,3-difluorocyclobutyl)amino)-2-oxoethyl)-N-(3-fluorophenyl)pyrrolidine-3-carboxamide] the figure was < 0.02 µM; with `O=C(NC1CC(F)(F)C1)[C@@H](c1ccccc1Cl)N(C(=O)[C@H]1CCN(S(=O)(=O)N2CC2)C1)c1cccc(F)c1` [Example 35, (S)-1-(aziridin-1-ylsulfonyl)-N—((R)-1-(2-chlorophenyl)-2-((3,3-difluorocyclobutyl)amino)-2-oxoethyl)-N-(3-fluorophenyl)pyrrolidine-3-carboxamide], < 0.02 µM.
Turning to `O=C(NC1CC(F)(F)C1)[C@H](c1ccccc1Cl)N(C(=O)[C@@H]1CCN(S(=O)(=O)N2CC2)C1)c1cccc(F)c1` [Example 36, (R)-1-(aziridin-1-ylsulfonyl)-N—((S)-1-(2-chlorophenyl)-2-((3,3-difluorocyclobutyl)amino)-2-oxoethyl)-N-(3-fluorophenyl)pyrrolidine-3-carboxamide], the IC50 against IDH1 (R132H) [2] was < 0.02 µM.
`O=C(NC1CC(F)(F)C1)[C@@H](c1ccccc1Cl)N(C(=O)[C@@H]1CCN(S(=O)(=O)N2CC2)C1)c1cccc(F)c1` [Example 37, (R)-1-(aziridin-1-ylsulfonyl)-N—((R)-1-(2-chlorophenyl)-2-((3,3-difluorocyclobutyl)amino)-2-oxoethyl)-N-(3-fluorophenyl)pyrrolidine-3-carboxamide]: the IC50 against IDH1 (R132H) [2] is < 1 µM.
